Measured values as given in the supplement of paper PMC6045584.
± gives the standard deviation of the averaged measurements.

How the values were obtained:
[1] = compound: CCN(CC)CCCCNc1ncc2cc(-c3cc(OC)cc(OC)c3)c(NC(=O)NC(C)(C)C)nc2n1; test: surviving fraction relative to DMSO-only wells; higher = less growth inhibition; conditions: exposure time: 5 days
Summary of the method: (§1)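 Surviving fraction was calculated by normalising CellTiter-Glo luminescence to the median of DMSO-only wells. Tumour cell lines in log phase were seeded in 384-well plates at 250–500 cells per well, and 24 hours later were exposed continuously for five days to inhibitors at 0.5, 1, 5, 10, 50, 100, 500 and 1000 nM.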

2-METHOXYESTRADIOL = compound: COc1cc2c(cc1O)CC[C@@H]1[C@@H]2CC[C@]2(C)[C@@H](O)CC[C@@H]12 [2-METHOXYESTRADIOL]; test: as above; conditions: exposure time: 5 days
Summary of the method: as §1

Test System | surviving fraction ([1]; 0.5 nM) | surviving fraction ([1]; 1 nM) | surviving fraction ([1]; 5 nM) | surviving fraction ([1]; 10 nM) | surviving fraction ([1]; 50 nM) | surviving fraction ([1]; 100 nM) | surviving fraction ([1]; 500 nM) | surviving fraction ([1]; 1000 nM) | surviving fraction (2-METHOXYESTRADIOL; 0.5 nM) | surviving fraction (2-METHOXYESTRADIOL; 1 nM) | surviving fraction (2-METHOXYESTRADIOL; 5 nM) | surviving fraction (2-METHOXYESTRADIOL; 10 nM) | surviving fraction (2-METHOXYESTRADIOL; 50 nM) | surviving fraction (2-METHOXYESTRADIOL; 100 nM) | surviving fraction (2-METHOXYESTRADIOL; 500 nM) | surviving fraction (2-METHOXYESTRADIOL; 1000 nM)
T47D BREAST | 0.967 ± 0.03 | 1.02 ± 0.028 | 1.02 ± 0.047 | 1.01 ± 0.017 | 1.03 ± 0.023 | 1.02 ± 0.043 | 1.02 ± 0.054 | 1.08 ± 0.03 | 1 ± 0.053 | 1.02 ± 0.017 | 0.9847 ± 0.0046 | 1.01 ± 0.038 | 1.06 ± 0.062 | 1.087 ± 0.0062 | 0.783 ± 0.033 | 0.543 ± 0.037
CHLA90 AUTONOMIC GANGLIA | 0.906 ± 0.053 | 1.02 ± 0.046 | 0.892 ± 0.058 | 0.9023 ± 0.0046 | 0.907 ± 0.036 | 0.912 ± 0.022 | 0.7 ± 0.035 | 0.598 ± 0.072 | 0.969 ± 0.059 | 0.89 ± 0.077 | 0.879 ± 0.074 | 0.888 ± 0.022 | 0.997 ± 0.047 | 0.998 ± 0.029 | 0.896 ± 0.08 | 0.663 ± 0.005
SCC47 HEADNECK | 0.979 ± 0.033 | 0.993 ± 0.082 | 0.996 ± 0.05 | 1.07 ± 0.047 | 0.968 ± 0.079 | 1 ± 0.14 | 1.05 ± 0.067 | 0.995 ± 0.019 | 0.816 ± 0.11 | 0.912 ± 0.15 | 0.977 ± 0.055 | 1.1 ± 0.16 | 1.09 ± 0.11 | 1.12 ± 0.15 | 0.838 ± 0.046 | 0.872 ± 0.12
CASKI CERVIX | 0.927 ± 0.03 | 0.907 ± 0.022 | 0.953 ± 0.056 | 0.982 ± 0.042 | 0.996 ± 0.013 | 0.941 ± 0.05 | 0.751 ± 0.035 | 0.602 ± 0.014 | 0.889 ± 0.044 | 0.923 ± 0.029 | 0.899 ± 0.078 | 0.939 ± 0.063 | 1.02 ± 0.057 | 1.05 ± 0.052 | 0.683 ± 0.1 | 0.0593 ± 0.004
HU09 BONE | 1 ± 0.045 | 1.01 ± 0.047 | 0.928 ± 0.028 | 1.02 ± 0.12 | 0.942 ± 0.061 | 0.921 ± 0.072 | 0.72 ± 0.011 | 0.715 ± 0.065 | 1.02 ± 0.055 | 0.959 ± 0.03 | 1.02 ± 0.024 | 1.1 ± 0.1 | 1.12 ± 0.081 | 1.08 ± 0.095 | 0.512 ± 0.015 | 0.159 ± 0.029
SAOS2 BONE | 1.09 ± 0.035 | 1.195 ± 0.011 | 1.2 ± 0.077 | 1.21 ± 0.042 | 1.23 ± 0.043 | 1.19 ± 0.037 | 0.995 ± 0.051 | 0.906 ± 0.054 | 1.09 ± 0.099 | 1.16 ± 0.065 | 1.17 ± 0.019 | 1.17 ± 0.05 | 1.28 ± 0.21 | 1.22 ± 0.051 | 0.769 ± 0.076 | 0.272 ± 0.013
SUM149 BREAST | 0.881 ± 0.14 | 1.12 ± 0.057 | 0.998 ± 0.037 | 1.21 ± 0.049 | 1.03 ± 0.069 | 1.1 ± 0.13 | 1.01 ± 0.056 | 1.08 ± 0.14 | 0.984 ± 0.04 | 0.997 ± 0.052 | 1.07 ± 0.072 | 0.955 ± 0.025 | 1 ± 0.052 | 0.934 ± 0.065 | 0.442 ± 0.052 | 0.133 ± 0.022
SYO1 SYNOVIAL | 0.786 ± 0.081 | 0.961 ± 0.052 | 0.859 ± 0.044 | 0.868 ± 0.043 | 0.699 ± 0.016 | 0.727 ± 0.056 | 0.669 ± 0.055 | 0.653 ± 0.009 | 0.933 ± 0.044 | 0.93 ± 0.038 | 0.933 ± 0.017 | 0.961 ± 0.046 | 0.946 ± 0.043 | 0.9446 ± 0.0033 | 0.441 ± 0.065 | 0.1008 ± 0.00069
DU4475 BREAST | 0.845 ± 0.2 | 0.76 ± 0.22 | 0.743 ± 0.13 | 0.795 ± 0.19 | 0.814 ± 0.16 | 0.762 ± 0.11 | 0.702 ± 0.2 | 0.703 ± 0.18 | 0.835 ± 0.14 | 0.807 ± 0.045 | 0.849 ± 0.11 | 0.901 ± 0.23 | 0.782 ± 0.17 | 0.746 ± 0.066 | 0.452 ± 0.12 | 0.114 ± 0.044
JIMT1 BREAST | 0.964 ± 0.028 | 0.951 ± 0.04 | 0.967 ± 0.054 | 1.01 ± 0.037 | 1.02 ± 0.011 | 1.03 ± 0.042 | 0.989 ± 0.031 | 1.02 ± 0.025 | 0.985 ± 0.032 | 1.04 ± 0.029 | 1.03 ± 0.023 | 1 ± 0.031 | 1.09 ± 0.013 | 1.05 ± 0.021 | 0.762 ± 0.053 | 0.403 ± 0.045
ASKA SYNOVIAL | 1.04 ± 0.044 | 1.14 ± 0.029 | 1.19 ± 0.046 | 1.09 ± 0.091 | 1.14 ± 0.046 | 1.18 ± 0.065 | 1.09 ± 0.086 | 0.992 ± 0.013 | 1.07 ± 0.086 | 1.08 ± 0.068 | 1.05 ± 0.054 | 1.07 ± 0.054 | 1.1 ± 0.049 | 1.03 ± 0.066 | 0.503 ± 0.039 | 0.353 ± 0.015
H23 LUNG | 0.958 ± 0.041 | 0.998 ± 0.065 | 0.96 ± 0.053 | 1.01 ± 0.054 | 0.983 ± 0.02 | 1.02 ± 0.013 | 1.02 ± 0.029 | 1.02 ± 0.079 | 0.97 ± 0.025 | 0.949 ± 0.017 | 1 ± 0.035 | 0.963 ± 0.039 | 0.975 ± 0.06 | 1.03 ± 0.021 | 0.749 ± 0.019 | 0.265 ± 0.004
SG27 HEADNECK | 0.947 ± 0.15 | 1.03 ± 0.087 | 1.01 ± 0.12 | 1.01 ± 0.086 | 0.879 ± 0.04 | 0.817 ± 0.032 | 0.784 ± 0.05 | 0.805 ± 0.047 | 1.14 ± 0.19 | 1.2 ± 0.083 | 1.04 ± 0.12 | 1.05 ± 0.081 | 1.05 ± 0.085 | 1.16 ± 0.2 | 1.09 ± 0.062 | 1.03 ± 0.079
BT549 BREAST | 1.16 ± 0.13 | 1.16 ± 0.11 | 1.15 ± 0.11 | 1.19 ± 0.077 | 1.18 ± 0.17 | 1.04 ± 0.096 | 0.932 ± 0.059 | 0.843 ± 0.068 | 0.974 ± 0.087 | 1.05 ± 0.1 | 1.05 ± 0.12 | 1.02 ± 0.024 | 0.968 ± 0.17 | 1.08 ± 0.14 | 0.53 ± 0.092 | 0.106 ± 0.044
SG43 HEADNECK | 0.9 ± 0.076 | 0.971 ± 0.053 | 0.974 ± 0.15 | 0.966 ± 0.095 | 0.85 ± 0.13 | 0.905 ± 0.24 | 0.95 ± 0.12 | 0.811 ± 0.16 | 0.84 ± 0.071 | 0.88 ± 0.13 | 0.807 ± 0.25 | 1.04 ± 0.39 | 0.702 ± 0.091 | 0.854 ± 0.23 | 0.91 ± 0.082 | 0.847 ± 0.11
MDAMB157 BREAST | 0.85 ± 0.13 | 0.935 ± 0.05 | 0.898 ± 0.031 | 0.993 ± 0.026 | 0.856 ± 0.03 | 0.68 ± 0.045 | 0.467 ± 0.033 | 0.515 ± 0.0087 | 0.873 ± 0.086 | 0.947 ± 0.022 | 0.935 ± 0.05 | 0.983 ± 0.12 | 0.959 ± 0.012 | 0.932 ± 0.013 | 0.76 ± 0.055 | 0.31 ± 0.066
SJSA1 BONE | 1.04 ± 0.052 | 1.04 ± 0.026 | 1.04 ± 0.026 | 1.09 ± 0.034 | 1.08 ± 0.021 | 1.07 ± 0.038 | 1.023 ± 0.0089 | 1.04 ± 0.034 | 0.941 ± 0.086 | 1.68 ± 0.14 | 1.73 ± 0.12 | 1.72 ± 0.037 | 1.75 ± 0.13 | 1.77 ± 0.08 | 1.67 ± 0.043 | 1.78 ± 0.08
CAL120 BREAST | 0.933 ± 0.032 | 0.918 ± 0.031 | 0.9335 ± 0.0035 | 0.928 ± 0.023 | 0.852 ± 0.029 | 0.746 ± 0.053 | 0.565 ± 0.021 | 0.537 ± 0.06 | 0.915 ± 0.051 | 0.912 ± 0.083 | 0.944 ± 0.076 | 0.927 ± 0.029 | 0.931 ± 0.071 | 0.933 ± 0.021 | 0.676 ± 0.025 | 0.316 ± 0.03
SKBR3 BREAST | 0.9 ± 0.11 | 0.967 ± 0.072 | 0.975 ± 0.22 | 0.851 ± 0.057 | 0.979 ± 0.13 | 0.992 ± 0.077 | 1 ± 0.05 | 0.848 ± 0.13 | 0.913 ± 0.033 | 0.924 ± 0.16 | 1.09 ± 0.065 | 0.956 ± 0.12 | 0.986 ± 0.079 | 0.986 ± 0.056 | 0.882 ± 0.099 | 0.548 ± 0.051
A549 LUNG | 0.975 ± 0.015 | 0.97 ± 0.049 | 0.949 ± 0.036 | 0.952 ± 0.042 | 0.963 ± 0.01 | 1.032 ± 0.0046 | 1.006 ± 0.0065 | 1.05 ± 0.061 | 0.991 ± 0.016 | 0.9623 ± 0.0067 | 0.983 ± 0.018 | 0.945 ± 0.021 | 1.02 ± 0.043 | 1.05 ± 0.015 | 0.992 ± 0.025 | 0.544 ± 0.028
